Data published in patent publication US20240358692A1, “TREATMENT OF SCLERODERMA” (Aisa Pharma, Inc., priority 2023, published 2024).

Experiments:
[1] = test system: participants with SSc-RP; experiment: SHAQ - Visual Analog Scale - Overall Disease Severity; type: in vivo, human; settings: cilnidipine 20 mg (combination: + tadalafil 5 mg)
Source text: (§1) The standard, validated, patient reported outcome measures tool for SSc patients, the Scleroderma Health Assessment Questionnaire (SHAQ), will be used to assess the participant qualify of life. Details are attached in the Appendix. The participant quality of life will be scored, and a disability index calculated for each questionnaire completed by the patient at Screening and each in-clinic visit. The absolute change in participant quality of life from baseline to the end of each dosing period will be calculated similar to frequency data as before.
The standard, validated, patient reported outcome measures tool for SSc patients, the SHAQ, was collected at the time points specified in the study schedules (FIG. 2 and FIGS. 4A and 4B) to assess the participant's quality of life. The SHAQ included a Raynaud's VAS that will also be reported separately.

[2] = test system: participants with SSc-RP; experiment: SHAQ - Standard Disability Index; type: in vivo, human; parameters: key to SHAQ Standard Disability Index, In-Clinic Visit (Day 12), Mean / SHAQ Standard Disability Index, In-Clinic Visit (Day 12), Median / SHAQ Standard Disability Index, Day 12, Mean / SHAQ Standard Disability Index, Day 12, Median: 0 = without any difficulty to 3 = unable to do; settings: for % change in Standard Disability Index: SHAQ, mITT Part A
Source text: as §1
The SHAQ is used to calculate a Disability Index to assess the participant qualify of life. The eight categories assessed by the Disability Index are 1) dressing and grooming, 2) arising, 3) eating, 4) walking, 5) hygiene, 6) reach, 7) grip, and 8) common daily activities. For each of these categories, patients report the amount of difficulty they have in performing two or three specific activities.
There are four possible responses for the Disability Index questions: • Without any difficulty=0 • With some difficulty=1 • With much difficulty=2 • Unable to do=3 • The highest score reported by the patient for any component question of the eight categories determines the score for that category. • If a component question is left blank or the response is too ambiguous to assign a score, then the score for that category is determined by the remaining completed question(s). • If all component questions are blank or if more than one answer is given, then follow up with the respondent is required. • If the respondent's mark is between the response columns, then move it to the closest one. If it's directly between the two, move it to the higher one.
This question results in a new set of category scores that are computed by adjusting the score for each category, if necessary, based on the patient's use of an aid or device or assistance for that category. If either devices and/or help from another person are checked for a category, the score is set to “2”, unless the score is already “3” (i.e., scores of “0” or “1” are increased to “2”). For example, if the highest score for the dressing category is “1”, and the patient says they use a device for dressing, the computed category score would be “2”. The sum of the computed categories scores is then calculated and divided by the number of categories answered. This gives a score in the 0 to 3 range.

[3] = Any Cilnidipine (N = 17), Day 12, PP Population, Part A
[4] = Cilnidipine 10 mg, SSc patients, PP, Part A
[5] = Cilnidipine 20 mg (N = 3), Day 12, Patients with Diagnosis of SSc, Modified ITT Population - Part A
[6] = Cilnidipine 20 mg, SSc patients, PP, Part A
[7] = Pooled Cilnidipine 20 mg and Cilnidipine 20 mg + Tadalafil 5 mg (N = 8), Day 12, PP Population, Part A
[8] = Pooled Cilnidipine (N = 8), Day 12, PP Population, Part A
[9] = pooled Cilnidipine 10 mg and Cilnidipine 10 mg + Tadalafil 5 mg
[10] = pooled Cilnidipine 20 mg and Cilnidipine 20 mg + Tadalafil 5 mg
[11] = pooled cilnidipine 10 mg and 20 mg arms (combination: + tadalafil 5 mg)

## COCCOC(=O)C1=C(C)NC(C)=C(C(=O)OC/C=C/c2ccccc2)C1c1cccc([N+](=O)[O-])c1 (stereo not shown) [Cilnidipine]
[1]
  VAS Overall Severity Percent Change from Baseline Q1: −76.19%
  VAS Overall Severity Percent Change from Baseline Q3: −51.72%
[2]; [3]
  SHAQ Standard Disability Index, Change from Baseline, Mean (SD): −0.041 (0.1990)
  SHAQ Standard Disability Index, Change from Baseline, Median: 0.000
  SHAQ Standard Disability Index, Percent Change from Baseline, Median: 0.00%
[2]; Cilnidipine 10 mg (N = 3), Patients with Diagnosis of SSc, Modified ITT Population - Part A
  SHAQ Standard Disability Index, In-Clinic Visit (Day 12), Median: 1.125
[2]; [4]
  SHAQ Standard Disability Index, Change from Baseline, Max: 0.00
  SHAQ Standard Disability Index, Change from Baseline, Min: 0.00,
  SHAQ Standard Disability Index, Change from Baseline, Q1: 0.000,
  SHAQ Standard Disability Index, Change from Baseline, Q3: 0.000
  SHAQ Standard Disability Index, Day 12, Max: 1.50
  SHAQ Standard Disability Index, Day 12, Mean: 0.656
  SHAQ Standard Disability Index, Day 12, Median: 0.563
  SHAQ Standard Disability Index, Day 12, Min: 0.00,
  SHAQ Standard Disability Index, Day 12, Q1: 0.000,
  SHAQ Standard Disability Index, Day 12, Q3: 1.313
  SHAQ Standard Disability Index, Percent Change from Baseline, Max: 0.0
  SHAQ Standard Disability Index, Percent Change from Baseline, Min: 0.0,
  SHAQ Standard Disability Index, Percent Change from Baseline, Q1: 0.00,
  SHAQ Standard Disability Index, Percent Change from Baseline, Q3: 0.00
[2]; [5]
  SHAQ Standard Disability Index, Change from Baseline, Mean: −0.125
  SHAQ Standard Disability Index, Change from Baseline, Median: −0.125
  SHAQ Standard Disability Index, Percent Change from Baseline, Mean: −50.00%
  SHAQ Standard Disability Index, Percent Change from Baseline, Median: −50.00%
[2]; Cilnidipine 20 mg (N = 3), Patients with Diagnosis of SSc, Modified ITT Population - Part A
  SHAQ Standard Disability Index, In-Clinic Visit (Day 12), Mean: 0.125
[2]; Cilnidipine 20 mg (n = 3)
  % change in Standard Disability Index: −50%
[2]; [6]
  SHAQ Standard Disability Index, Change from Baseline, Max: 0.13
  SHAQ Standard Disability Index, Change from Baseline, Mean: −0.063
  SHAQ Standard Disability Index, Change from Baseline, Median: −0.063
  SHAQ Standard Disability Index, Change from Baseline, Min: −0.25,
  SHAQ Standard Disability Index, Change from Baseline, Q1: −0.188,
  SHAQ Standard Disability Index, Change from Baseline, Q3: 0.063
  SHAQ Standard Disability Index, Day 12, Max: 0.75
  SHAQ Standard Disability Index, Day 12, Mean: 0.281
  SHAQ Standard Disability Index, Day 12, Median: 0.188
  SHAQ Standard Disability Index, Day 12, Min: 0.00,
  SHAQ Standard Disability Index, Day 12, Q1: 0.063,
  SHAQ Standard Disability Index, Day 12, Q3: 0.500
  SHAQ Standard Disability Index, Percent Change from Baseline, Max: 20.0
  SHAQ Standard Disability Index, Percent Change from Baseline, Mean: −26.67
  SHAQ Standard Disability Index, Percent Change from Baseline, Min: −66.7,
  SHAQ Standard Disability Index, Percent Change from Baseline, Q1: −66.67,
  SHAQ Standard Disability Index, Percent Change from Baseline, Q3: 20.00
[2]; [7]
  SHAQ Standard Disability Index, Change from Baseline, Mean: −0.065
  SHAQ Standard Disability Index, Change from Baseline, Median: 0.000
[2]; [8]
  SHAQ Standard Disability Index, Change from Baseline, Mean (SD): −0.031 (0.1108)
  SHAQ Standard Disability Index, In-Clinic Visit (Day 12), Mean (SD): 0.469 (0.5853)
  SHAQ Standard Disability Index, Percent Change from Baseline, Mean (SD): −16.00 (34.189) %
[2]; Pooled Cilnidipine (n = 7)
  % change in Standard Disability Index: −25%
[2]; Pooled cilnidipine (n=4)
  % Δ from baseline, standard disability mean: −25%
[2]; [9]
  Standard Disability Index Change from Baseline Max: 0.38
  Standard Disability Index Change from Baseline Mean: −0.021
  Standard Disability Index Change from Baseline Median: 0.000
  Standard Disability Index Change from Baseline Min: −0.31,
  Standard Disability Index Change from Baseline Q3: 0.000
  Standard Disability Index Day 12 Max: 1.50
  Standard Disability Index Day 12 Min: 0.00,
  Standard Disability Index Day 12 Q1: 0.188,
  Standard Disability Index Day 12 Q3: 1.125
  Standard Disability Index Percent Change from Baseline Max: 150.0%
  Standard Disability Index Percent Change from Baseline Mean: 7.50%
  Standard Disability Index Percent Change from Baseline Median: 0.00%
  Standard Disability Index Percent Change from Baseline Min: −62.5, %
  Standard Disability Index Percent Change from Baseline Q1: −25.00, %
  Standard Disability Index Percent Change from Baseline Q3: 0.00%
[2]; [10]
  Standard Disability Index Change from Baseline Max: 0.13
  Standard Disability Index Change from Baseline Mean: −0.092
  Standard Disability Index Change from Baseline Median: 0.000
  Standard Disability Index Change from Baseline Min: −0.52,
  Standard Disability Index Change from Baseline Q1: −0.250,
  Standard Disability Index Day 12 Max: 1.75
  Standard Disability Index Day 12 Median: 0.250
  Standard Disability Index Day 12 Min: 0.00,
  Standard Disability Index Day 12 Q1: 0.000,
  Standard Disability Index Day 12 Q3: 0.857
  Standard Disability Index Percent Change from Baseline Max: 100.0%
  Standard Disability Index Percent Change from Baseline Median: −33.33%
  Standard Disability Index Percent Change from Baseline Min: −66.7, %
  Standard Disability Index Percent Change from Baseline Q1: −37.66, %
  Standard Disability Index Percent Change from Baseline Q3: 7.69%
[2]; [11]
  Standard Disability Index Change from Baseline Max: 0.00
  Standard Disability Index Change from Baseline Mean: −0.054
  Standard Disability Index Change from Baseline Median: 0.000
  Standard Disability Index Change from Baseline Min: −0.25,
  Standard Disability Index Change from Baseline Q3: 0.000
  Standard Disability Index Day 12 Max: 1.50
  Standard Disability Index Day 12 Median: 0.125
  Standard Disability Index Day 12 Min: 0.00,
  Standard Disability Index Day 12 Q1: 0.000,
  Standard Disability Index Percent Change from Baseline Max: 0.0%
  Standard Disability Index Percent Change from Baseline Mean: −25.00%
  Standard Disability Index Percent Change from Baseline Min: −66.7, %
  Standard Disability Index Percent Change from Baseline Q1: −50.00, %
  Standard Disability Index Percent Change from Baseline Q3: 0.00%
